What was measured:
[1] = LD 50 rat (Table II); conditions: in vivo
[2] = system: spontaneously hypertensive male rats (Okamoto strain); test: Anti-hypertensive effect in spontaneously hypertensive rats, systolic pressure; type: in vivo; conditions: 10 mg/kg perorally, spontaneously hypertensive rat
Description: Experiments were carried out on spontaneously hypertensive male rats (Okamoto strain), which were at least 14 weeks old. The systolic pressure was measured according to the technique described by Gerold and Tschirky (Arzneim.-Forsch. 1968, 18, 1285). The compounds were administered orally at a dose of 1 or 10 mg/kg.
Table II collects together the results obtained which are expressed in percent variation of the initial pressure, 2 hours, 4 hours and 24 hours after administration of the compound (I).

SMILES	LD50 ([1]; po, perorally) [mg/kg]	% variation of the pressure after 2 hours [2] [%]	% variation of the pressure after 4 hours [2] [%]	% variation of the pressure after 24 hours [2] [%]	LD50 ([1]; ip / intraperitoneally) [mg/kg]
COc1cc2nc(N3CCC(C(=O)c4nnc(SC)o4)CC3)nc(N)c2cc1OC [Compound 7, 4-amino-6,7-dimethoxy-2-[4-(5-methylthio-1,3,4-oxadiazole-2-carbonyl)-piperidino]-quinazoline]	> 500	-24	-20	-2	
COc1cc2nc(N3CCC(C(=O)c4cccs4)CC3)nc(N)c2cc1OC [Compound 6]		-27	-22	-2	> 500
COc1cc2nc(N(C)CCCN(C)C(=O)c3ccccc3)nc(N)c2cc1OC [Compound 10, N1-(4-amino-6,7-dimethoxy-quinazolinyl-2)-N2-benzoyl-N1 N2-dimethyl-propylenediamine]	> 500	-23	-15	-4	
COc1cc2nc(NCCCN(C)C(=O)c3ccccc3)nc(N)c2cc1OC [Compound 12, N1-(4-amino-6,7-dimethoxy-quinazolinyl-2)-N2-benzoyl-N2-methyl-propylenediamine]		-31	-23		~400
COc1cccc(C(=O)C2CCN(c3nc(N)c4cc(OC)c(OC)cc4n3)CC2)c1 [Compound 3, 4-Amino-6,7-dimethoxy-2-[4-(3-methoxybenzoyl)-piperidino]-quinazoline]		-32	-23		~500
COc1cc2nc(N3CCC(C(=O)c4ccc5c(c4)OCO5)CC3)nc(N)c2cc1OC [Compound 1, 4-Amino-6,7-dimethoxy-2-[4-(3,4-methylenedioxybenzoyl)piperidino]-quinazoline]		-30	-32	-37	> 500
COc1cc2nc(N3CCC(C(=O)c4ccccc4)CC3)nc(N)c2cc1OC [Compound 2]		-43	-32	-40	> 500

Source: patent US4341893A, “Quinazoline derivatives” (Synthelabo, priority 1976, dated 1982)
